Assay results: patent US9650395B2, “Antibacterial compounds and methods for use” (PTC Therapeutics, Inc., priority 2011, dated 2017)
Structures can show the parent of a compound that is named as a salt.

Legend:
various organisms = experiment: Microdilution checkerboard method, combination with ciprofloxacin (MIC and FIC); format: cell-based; details: single agent
[1] = test system: super sensitive Gram-negative Escherichia coli (E. coli) BAS849; experiment: Antibacterial activity, microbroth dilution MIC, E. coli BAS849; format: cell-based; details: Escherichia coli; E. coli BAS849, microbroth dilution; read-out: MIC, BAS849
[2] = test system: Moraxella catarrhalis (M. catarrhalis) 25238; experiment: Antibacterial activity, MIC, M. catarrhalis 25238; format: cell-based; details: M. catarrhalis 25238; for MIC: Moraxella catarrhalis, read-out: MIC 25238
[3] = test system: E. coli ELZ4251 (MDR clinical isolate); experiment: Antibacterial activity, MIC, MDR E. coli ELZ4251; format: cell-based, Escherichia coli; details: E. coli ELZ4251, MDR clinical isolate; for MIC: Escherichia coli, read-out: MIC ELZ4251
[4] = test system: resistant K. pneumoniae MXX1232 (MDR clinical isolate); experiment: Antibacterial activity, MIC, resistant K. pneumoniae MXX1232; format: cell-based, Klebsiella pneumoniae; details: Klebsiella pneumoniae; resistant K. pneumoniae MMX1232, MDR clinical isolate; read-out: MIC MMX1232
[5] = test system: Acinetobacter baumannii (A. baumannii) BAA747; experiment: Antibacterial activity, MIC, A. baumannii BAA747; format: cell-based; details: Acinetobacter baumannii; A. baumannii BAA747; read-out: MIC BAA747
[6] = test system: Neisseria meningitidis (N. meningitidis) 13090; experiment: Antibacterial activity, MIC, N. meningitidis 13090; format: cell-based; details: Neisseria meningitidis; N. meningitidis 13090; read-out: MIC 13090
[7] = test system: Pseudomonas aeruginosa (P. aeruginosa) 27853; experiment: Antibacterial activity, MIC, P. aeruginosa 27853; format: cell-based; details: P. aeruginosa 27853; for MIC: Pseudomonas aeruginosa, read-out: MIC 27853
Text: (§1) The antibacterial activity from a microbroth dilution method may be presented as the minimum inhibitory concentration (MIC in […]). The MIC value is the lowest concentration of a drug which prevents macroscopically visible bacterial growth under test conditions.
Antibacterial activity of test compounds against the Gram-negative bacterium Pseudomonas aeruginosa (P. aeruginosa) 27853 is shown in Table 5.

[8] = test system: control Gram-negative E. coli 25922 strain; experiment: Antibacterial activity, microbroth dilution MIC, E. coli 25922; format: cell-based, Escherichia coli; details: Escherichia coli; E. coli 25922, microbroth dilution; read-out: MIC, 25922
[9] = test system: E. coli ELZ4000 (MDR clinical isolate); experiment: Antibacterial activity, MIC, MDR E. coli ELZ4000; format: cell-based, Escherichia coli; details: Escherichia coli; E. coli ELZ4000, MDR clinical isolate; read-out: MIC ELZ4000
[10] = test system: quinolone resistant E. coli LZ3111; experiment: Antibacterial activity, MIC, quinolone resistant E. coli LZ3111; format: cell-based, Escherichia coli; details: Escherichia coli, read-out: MIC, LZ3111
Text: as §1
Mutations in these regions are known to confer a high level resistance to the quinolone class of antibiotics.

[11] = test system: resistant A. baumannii MXX2240 (MDR clinical isolate); experiment: Antibacterial activity, MIC, resistant A. baumannii MXX2240; format: cell-based, Acinetobacter baumannii; details: resistant A. baumannii MMX2240, MDR clinical isolate; for MIC: Acinetobacter baumannii, read-out: MIC MMX2240
[12] = test system: Gram-positive Staphylococcus aureus (S. aureus) 29213; experiment: Antibacterial activity, microbroth dilution MIC, S. aureus 29213; format: cell-based; details: Staphylococcus aureus; S. aureus 29213, microbroth dilution; read-out: MIC, 29213
[13] = test system: Haemophilus influenzae (H. influenzae) 49247; experiment: Antibacterial activity, MIC, H. influenzae 49247; format: cell-based; details: Haemophilus influenzae; H. influenzae 49247; read-out: MIC 49247
Summary of the method: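 A microbroth dilution method gave the minimum inhibitory concentration for each compound against H. influenzae 49247, a Gram-negative bacterium. MIC means the smallest concentration of drug at which no macroscopically visible bacterial growth appears under the conditions of the test.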

[14] = test system: Klebsiella pneumoniae (K. pneumoniae) 35657; experiment: Antibacterial activity, MIC, K. pneumoniae 35657; format: cell-based; details: Klebsiella pneumoniae
[15] = Acinetobacter baumannii, A. baumannii (MDR)
[16] = Acinetobacter baumannii, BAA747, A. baumannii BAA747
[17] = Escherichia coli, E. coli 25922
[18] = Klebsiella pneumoniae, K. pneumoniae 35657
[19] = Pseudomonas aeruginosa, P. aeruginosa 27853
[20] = Staphylococcus aureus, S. aureus 29213
[21] = Staphylococcus aureus, S. aureus (MDR)

Row | SMILES | MIC [1] | MIC [2] | MIC [3] | MIC [4] | MIC [5] | MIC [6] | MIC [7] | MIC [8] | MIC [9] | MIC [10] | MIC [11] | MIC [12] | MIC [13] | MIC [14] | further results
1 | O=C(O)c1cn(C2CC2)c2cc(N3CCNCC3)c(F)cc2c1=O [Cipro, ciprofloxacin, reference compound] |  |  |  |  |  |  |  |  |  |  |  |  |  |  | MIC (various organisms; [15]): 125 mg/L; MIC (various organisms; [16]): 0.098 mg/L; MIC (various organisms; Escherichia coli, E. coli 3111): 125 mg/L; MIC (various organisms; [17]): 0.013 mg/L; MIC (various organisms; [18]): 0.01 mg/L; MIC (various organisms; [19]): 0.2 mg/L; MIC (various organisms; [20]): 0.39 mg/L; MIC (various organisms; [21]): 31.2 mg/L
2 | CCc1c(-c2ccc(N3C[C@H]4CCC[C@H](NC)[C@H]4C3)cc2)[nH]c(=O)c(C(=O)O)c1O.Cl [Cpd 268, 5-ethyl-4-hydroxy-6-{4-[(3aR,4S,7aS)-4-(methylamino)octahydro-2H-isoindol-2-yl]phenyl}-2-oxo-1,2-dihydropyridine-3-carboxylic acid hydrochloride] | 1 to 3.5 mg/L | 3.5 to 12.5 mg/L | 3.5 to 12.5 mg/L | 12.5 to 150 mg/L | 12.5 to 150 mg/L | 3.5 to 12.5 mg/L | 12.5 to 150 mg/L | 3.5 to 12.5 mg/L | 12.5 to 150 mg/L | 1 to 3.5 mg/L | 12.5 to 150 mg/L | 3.5 to 12.5 mg/L | 12.5 to 150 mg/L | 12.5 to 150 mg/L | 
3 | CCc1c(-c2ccc(N3C[C@@H]4[C@@H](N)[C@@H]4C3)cc2)[nH]c(=O)c(C(=O)O)c1O [Cpd 269, 6-{4-[(1R,5S,6s)-6-amino-3-azabicyclo[3.1.0]hex-3-yl]phenyl}-5-ethyl-4-hydroxy-2-oxo-1,2-dihydropyridine-3-carboxylic acid hydrochloride] | < 1 mg/L |  |  | 12.5 to 150 mg/L | < 1 mg/L |  |  | < 1 mg/L |  | 3.5 to 12.5 mg/L |  | 3.5 to 12.5 mg/L |  | < 1 mg/L | MIC 25238 ([2]; hydrochloride): **** (an MIC value of ≦1.0 μg/mL is indicated by four stars (****)); MIC ELZ4251 ([3]; hydrochloride): * (an MIC value between >12.5 μg/mL and ≦150 μg/mL is indicated by a single star (*)); MIC 27853 ([7]; hydrochloride): *** (an MIC value between >1.0 μg/mL and ≦3.5 μg/mL is indicated by three stars (***)); MIC MMX2240 ([11]; hydrochloride): ** (an MIC value between >3.5 μg/mL and ≦12.5 μg/mL is indicated by two stars (**)); MIC (various organisms; [15]): 12.5 mg/L; MIC (various organisms; [16]): 0.39 mg/L; MIC (various organisms; Escherichia coli, E. coli 3111): 3.1 mg/L; MIC (various organisms; [17]): 0.19 mg/L; MIC (various organisms; [18]): 0.39 mg/L; MIC (various organisms; [19]): 1.6 mg/L; MIC (various organisms; [20]): 3.12 mg/L; MIC (various organisms; [21]): 6.2 mg/L
4 | CCc1c(-c2ccc(N3C[C@@H]4[C@H](C3)[C@H]4NC)cc2)[nH]c(=O)c(C(=O)O)c1O [Cpd 270, 5-ethyl-4-hydroxy-6-{4-[(1R,5S,6s)-6-(methylamino)-3-azabicyclo[3.1.0]hex-3-yl]phenyl}-2-oxo-1,2-dihydropyridine-3-carboxylic acid hydrochloride] | < 1 mg/L | < 1 mg/L | 3.5 to 12.5 mg/L | 12.5 to 150 mg/L | < 1 mg/L | < 1 mg/L | 1 to 3.5 mg/L | < 1 mg/L | 12.5 to 150 mg/L | 1 to 3.5 mg/L | 12.5 to 150 mg/L | 3.5 to 12.5 mg/L | < 1 mg/L | < 1 mg/L | 
5 | CCc1c(-c2ccc(N3CC4CCCNC4C3)cc2)[nH]c(=O)c(C(=O)O)c1O.Cl (centres unmarked) [Cpd 272, 5-ethyl-4-hydroxy-6-[4-(octahydro-6H-pyrrolo[3,4-b]pyridin-6-yl)phenyl]-2-oxo-1,2-dihydropyridine-3-carboxylic acid hydrochloride] | < 1 mg/L | < 1 mg/L | 1 to 3.5 mg/L | 12.5 to 150 mg/L | 1 to 3.5 mg/L | < 1 mg/L | 3.5 to 12.5 mg/L | < 1 mg/L | 3.5 to 12.5 mg/L | < 1 mg/L | 3.5 to 12.5 mg/L | 3.5 to 12.5 mg/L | < 1 mg/L | < 1 mg/L | 
6 | CCc1c(-c2ccc(N3CCC(N(C)C)C3)cc2)[nH]c(=O)c(C(=O)O)c1O.Cl (centres unmarked) [Cpd 275, 6-{4-[3-(dimethylamino)pyrrolidin-1-yl]phenyl}-5-ethyl-4-hydroxy-2-oxo-1,2-dihydropyridine-3-carboxylic acid hydrochloride] | < 1 mg/L | < 1 mg/L | 1 to 3.5 mg/L | 12.5 to 150 mg/L | 1 to 3.5 mg/L | < 1 mg/L | 3.5 to 12.5 mg/L | < 1 mg/L | 3.5 to 12.5 mg/L | 1 to 3.5 mg/L | 1 to 3.5 mg/L | 12.5 to 150 mg/L | < 1 mg/L | 1 to 3.5 mg/L | 
7 | CCc1c(-c2ccc(N3CC4CC4(N)C3)cc2)[nH]c(=O)c(C(=O)O)c1O.Cl (centres unmarked) [Cpd 277, 6-[4-(1-amino-3-azabicyclo[3.1.0]hex-3-yl)phenyl]-5-ethyl-4-hydroxy-2-oxo-1,2-dihydropyridine-3-carboxylic acid hydrochloride] | < 1 mg/L | 1 to 3.5 mg/L | 12.5 to 150 mg/L | 12.5 to 150 mg/L | 3.5 to 12.5 mg/L | < 1 mg/L | 12.5 to 150 mg/L | 1 to 3.5 mg/L | 12.5 to 150 mg/L | 3.5 to 12.5 mg/L | 12.5 to 150 mg/L | 3.5 to 12.5 mg/L | 1 to 3.5 mg/L | 1 to 3.5 mg/L | 
8 | CCc1c(-c2ccc(N3CCC(C(C)(C)N)C3)cc2)[nH]c(=O)c(C(=O)O)c1O.Cl (centres unmarked) [Cpd 279, 6-{4-[3-(2-aminopropan-2-yl)pyrrolidin-1-yl]phenyl}-5-ethyl-4-hydroxy-2-oxo-1,2-dihydropyridine-3-carboxylic acid hydrochloride] | < 1 mg/L | 3.5 to 12.5 mg/L | 1 to 3.5 mg/L | 12.5 to 150 mg/L | 12.5 to 150 mg/L | 12.5 to 150 mg/L | 12.5 to 150 mg/L | 1 to 3.5 mg/L | 3.5 to 12.5 mg/L | < 1 mg/L | 3.5 to 12.5 mg/L | 12.5 to 150 mg/L | 3.5 to 12.5 mg/L | 3.5 to 12.5 mg/L | 
9 | CCc1c(-c2ccc(N3C[C@H]4CCC[C@@H](NC)[C@H]4C3)cc2)[nH]c(=O)c(C(=O)O)c1O.Cl [Cpd 296, 5-ethyl-4-hydroxy-6-{4-[(3aR,4R,7aS)-4-(methylamino)octahydro-2H-isoindol-2-yl]phenyl}-2-oxo-1,2-dihydropyridine-3-carboxylic acid hydrochloride] | < 1 mg/L | 3.5 to 12.5 mg/L | 3.5 to 12.5 mg/L | 12.5 to 150 mg/L | 12.5 to 150 mg/L | < 1 mg/L | 12.5 to 150 mg/L | 1 to 3.5 mg/L | 12.5 to 150 mg/L | < 1 mg/L | 3.5 to 12.5 mg/L | 1 to 3.5 mg/L | 3.5 to 12.5 mg/L | 1 to 3.5 mg/L | 
